# Data taken from ChEMBL document CHEMBL1201862, “PubChem BioAssay data set” (2004).
# Calls of active or inactive are those of the source.
# Tests used:
# Troponin, cardiac muscle = Troponin, cardiac muscle (Homo sapiens, UniProt P19429+P45379+P63316); assay: Fluorescence-based biochemical high throughput dose response assay for activators of the calcium sensitivity of cardiac Regulated Thin Filaments (RTF). [Related pubchem assays (depositor defined):AID493008, AID493018, AID504382, AID504383]; assay type: protein-complex assay
# Cytochrome P450 3A4 = Cytochrome P450 3A4 (Homo sapiens, UniProt P08684); conditions: Potency;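 note: confirmatory qHTS run detecting inhibitors and substrates of CYP3A4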
# [1] = Luminescence Cell-Based Dose Response to Identify Activators of 5'UTR Stem-Loop Driven Prion Protein mRNA Translation in H4-C Neuroglioblastoma Cells. [Related pubchem assays: 1829 (Project Summary), 1814 (Primary HTS)]; assay type: functional
# [2] = Luminescence Cell-Based Dose Confirmation HTS to Identify Activators of 5'UTR Stem-Loop Driven Alpha-Synuclein mRNA Translation in H4 Neuroglioblastoma Cells. [Related pubchem assays: 1829 (Project Summary), 1814 (Primary HTS)]; assay type: functional
# [3] = Luminescence Cell-Based Dose Response HTS to Identify Activators of Luciferase Translation or Activity in H4 […] Cells. [Related pubchem assays: 1829 (Project Summary), 1814 (Primary HTS)]; assay type: functional
# H4 = assay: Luminescence Cell-Based Dose Response HTS to Identify Activators of 5'UTR Stem-Loop Driven Prion Protein mRNA Translation in H4 Neuroglioblastoma Cells. [Related pubchem assays: 1829 (Project Summary), 1814 (Primary HTS)]; assay type: functional; conditions: Homo sapiens
# [4] = Luminescence Cell-Based Dose Response to Identify Activators of Luciferase Translation or Activity in H4-C Neuroglioblastoma Cells. [Related pubchem assays: 1829 (Project Summary), 1814 (Primary HTS)]; assay type: functional
# [5] = Luminescence Cell-Based Dose Confirmation to Identify Activators of 5'UTR Stem-Loop Driven Alpha-Synuclein mRNA Translation in H4 Neuroglioblastoma Cells. [Related pubchem assays: 1829 (Project Summary), 1814 (Primary HTS)]; assay type: functional
# [6] = target: T1, Carboxy-terminal domain RNA polymerase II polypeptide A small phosphatase 1 (Homo sapiens, UniProt Q9GZU7); assay: CTDSP1 inhibitors, concentration-response, biochemical, absorbance readout, ultra-high-throughput screen actives (AID 540297); assay type: functional
# T1 sequence (Q9GZU7 whole entry): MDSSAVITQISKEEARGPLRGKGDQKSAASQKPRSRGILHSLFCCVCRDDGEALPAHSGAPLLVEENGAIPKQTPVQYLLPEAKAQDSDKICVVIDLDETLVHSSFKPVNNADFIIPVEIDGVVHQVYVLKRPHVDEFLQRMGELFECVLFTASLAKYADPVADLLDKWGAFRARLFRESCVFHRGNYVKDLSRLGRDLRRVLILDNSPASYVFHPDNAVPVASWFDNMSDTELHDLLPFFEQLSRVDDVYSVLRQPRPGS
# Bcl-2-like protein 10 = target: T2, Bcl-2-like protein 10 (Homo sapiens, UniProt Q9HD36); assay: Bcl-B/TR3 peptide binding disruption – biochemical, fluorescence polarization, FITC-TR3 peptide, selectivity assay for Bfl-1 inhibitor project, primary screen (AID 748);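 note: fluorescence polarization from a fluorescein-labelled TR3 peptide binding purified Bcl-B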
# T2 sequence (Q9HD36 whole entry): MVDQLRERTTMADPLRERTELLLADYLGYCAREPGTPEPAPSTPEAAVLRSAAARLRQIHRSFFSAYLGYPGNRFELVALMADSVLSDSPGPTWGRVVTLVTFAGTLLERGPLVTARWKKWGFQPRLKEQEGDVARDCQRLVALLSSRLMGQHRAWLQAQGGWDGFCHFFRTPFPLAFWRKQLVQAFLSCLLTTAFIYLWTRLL
# [7] = target: T3, Mannose-6-phosphate isomerase (Homo sapiens, UniProt P34949); assay: phosphomannose isomerase inhibition – biochemical, fluorescence intensity, confirmation (AID 1535)
# T3 sequence (P34949 whole entry): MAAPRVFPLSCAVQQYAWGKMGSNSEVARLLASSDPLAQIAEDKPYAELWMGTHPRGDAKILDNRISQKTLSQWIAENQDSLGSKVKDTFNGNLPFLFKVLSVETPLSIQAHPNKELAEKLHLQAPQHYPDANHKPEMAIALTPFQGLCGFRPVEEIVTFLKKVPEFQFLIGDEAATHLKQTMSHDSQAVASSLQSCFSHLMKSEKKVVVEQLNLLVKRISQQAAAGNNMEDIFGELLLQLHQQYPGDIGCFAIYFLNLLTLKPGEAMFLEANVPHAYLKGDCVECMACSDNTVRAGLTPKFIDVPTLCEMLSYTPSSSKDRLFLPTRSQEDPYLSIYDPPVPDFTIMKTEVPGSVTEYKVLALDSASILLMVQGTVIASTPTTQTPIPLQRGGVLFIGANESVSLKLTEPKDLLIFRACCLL
# Phosphomannomutase 2 = target: T4, Phosphomannomutase 2 (Homo sapiens, UniProt O15305); assay: Counter screen SAR assay for PMM2 inhibitors via a fluorescence intensity assay. [Related pubchem assays (depositor defined):AID1545, AID1574]
# T4 sequence (O15305 whole entry): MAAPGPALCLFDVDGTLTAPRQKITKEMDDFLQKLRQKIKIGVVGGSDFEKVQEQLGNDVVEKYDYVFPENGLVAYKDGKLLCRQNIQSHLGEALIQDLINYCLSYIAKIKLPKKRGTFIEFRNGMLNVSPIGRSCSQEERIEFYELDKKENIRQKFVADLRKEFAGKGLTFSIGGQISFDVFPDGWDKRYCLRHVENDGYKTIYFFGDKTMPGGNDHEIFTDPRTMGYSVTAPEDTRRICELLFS
# HeLa = assay: viability loss in HeLa cells – cell-based, 24 h, cherry-picked samples, cytotoxicity control, dose response (AID 504726); assay type: functional; conditions: Homo sapiens;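 note: potency for cytotoxicity as loss of luminescence signal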
# [8] = A cytotoxicity screen of small molecule inhibitors of the PhoP region in Salmonella typhi identified in the primary screen. [Related pubchem assays: 1850, 1864, 1985 ]; assay type: functional
# Cytochrome P450 3A4, sequence (P08684 whole entry): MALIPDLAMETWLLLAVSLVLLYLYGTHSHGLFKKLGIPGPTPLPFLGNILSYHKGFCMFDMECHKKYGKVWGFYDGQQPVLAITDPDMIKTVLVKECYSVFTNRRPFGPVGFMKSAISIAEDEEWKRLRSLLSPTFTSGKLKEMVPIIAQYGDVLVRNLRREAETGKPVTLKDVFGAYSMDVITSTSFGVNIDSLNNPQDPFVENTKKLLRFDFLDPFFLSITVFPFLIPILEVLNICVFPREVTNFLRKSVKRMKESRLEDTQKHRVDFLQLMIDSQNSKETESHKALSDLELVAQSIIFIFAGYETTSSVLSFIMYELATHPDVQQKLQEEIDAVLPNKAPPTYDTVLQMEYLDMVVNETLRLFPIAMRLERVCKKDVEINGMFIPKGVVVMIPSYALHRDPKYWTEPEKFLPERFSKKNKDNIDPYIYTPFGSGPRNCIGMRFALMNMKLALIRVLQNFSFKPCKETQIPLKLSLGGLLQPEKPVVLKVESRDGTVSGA
compound,measurement,setting,value
COc1ccccc1NC(=O)COC(=O)c1cnc(C)cn1,EC50,"Troponin, cardiac muscle",> 71.5 µM (inactive)
CC(C)C1=CC2=CCC3[C@@](C)(CCC[C@@]3(C)C(=O)O)C2CC1 (some centres undefined),AC50,Cytochrome P450 3A4,39.8 µM (inconclusive)
COc1ccccc1-c1nn2c(-c3ccco3)nnc2s1,EC50,[1],1.27 µM (active)
same,EC50,[2],0.129 µM (active)
same,EC50,[3],< 0.1 µM (active)
same,EC50,H4,14.9 µM (active)
same,EC50,[4],0.431 µM (active)
same,EC50,[5],0.613 µM (active)
same,IC50,[6],12 µM (active)
COCCN1CCn2c(nc3cc(NC(=O)NC4CCCCC4)ccc32)C1,IC50,Bcl-2-like protein 10,> 12.5 µM (inactive)
CS(=O)(=O)c1ccc2nc(-n3sc4ccccc4c3=O)sc2c1,IC50,[7],> 50 µM (inactive)
same,IC50,Phosphomannomutase 2,> 100 µM (inactive)
CCN(Cc1ccccc1)S(=O)(=O)c1cc2nc(O)c(O)nc2cc1C,AC50,HeLa,> 350 µM (inactive)
O=C(NCc1ccccc1)c1cccc(COc2ccc(Cl)cc2)c1,EC50,[1],> 12 µM (not active)
same,EC50,[3],< 0.1 µM (active)
same,EC50,H4,> 120 µM (not active)
same,EC50,[4],> 12 µM (not active)
same,EC50,[5],0.261 µM (active)
Cc1cc2n(n1)SC(Nc1ccc(F)cc1)N2 (centres undefined),IC50,[7],> 50 µM (inactive)
same,IC50,Phosphomannomutase 2,> 100 µM (inactive)
CC(=O)NC(=NOCc1ccc(Br)cc1)c1nonc1NC(C)=O,AC50,HeLa,> 350 µM (inactive)
COc1ccc(NC(=O)c2cnn3c(C(F)(F)F)cc(-c4ccco4)nc23)cc1OC,IC50,Bcl-2-like protein 10,66.8 µM (inactive)
CCCCCC(=O)NNC(=S)NC(C)=O,EC50,[8],> 50 µM (active)
Cc1ccc(OCc2nnc(NC(=O)c3cccnc3)s2)cc1,EC50,[8],> 50 µM (active)
